In patent US8921552B2, “Benzothiazole hybrids useful as anticancer agents and process for the preparation thereof” (Council of Scientific & Industrial Research, priority 2011, dated 2014):

Columns and labels:
[1] = system: human tumor cell lines; test: In vitro anticancer activity, panel of seven human tumor cell lines (SRB assay); type: cell-based; settings: for inhibition at 10 µM: Homo sapiens, range over the cell lines, exposure period of at least 48 hrs, read-out: percentage growth inhibition for invitro anticancer activity; for cytotoxic activity in words: various human tumour cell lines
Method: (§1) The benzothiazole hybrids has been tested against seven human tumor cell lines derived from six cancer types (lung cancer, colon cancer, CNS cancer, ovarian cancer, prostate cancer and breast cancer). For these compounds results are expressed as percent of cell growth inhibition relative to that of untreated control cells. A protocol of 48 h continuous drug exposure has been used, and a sulforhodamine B (SRB) protein assay was used to estimate cell viability or growth.
(§2) The compounds 9b, 9h, 9m, 9r, 15c, 15h, 15m, 15r, 10b, 10h, 10m, 10r, 16c, 16h and 16m were evaluated for in vitro anticancer activity against seven human tumor cells derived from six cancer types (lung cancer, colon cancer, CNS cancer, ovarian cancer, prostate cancer and breast cancer) at concentration of 10 μM and the results are shown in Table 1.

[2] = system: SF-295; test: In vitro cytotoxicity, SRB assay, CNS cancer cell line SF-295; type: cell-based, human; settings: Homo sapiens, SF-295 (CNS), read-out: % of growth inhibition; for inhibition at 10 µM: 48 h exposure
From the text: as §1, with “cells.” for “cells. A protocol of 48 h continuous drug exposure has been used, and a sulforhodamine B (SRB) protein assay was used to estimate cell viability or growth.”

[3] = system: SW-620; test: In vitro cytotoxicity, SRB assay, colon cancer cell line SW-620; type: cell-based; settings: Homo sapiens, SW-620 (colon), 48 h exposure, read-out: % of growth inhibition
Method: as §1, §2

[4] = system: MCF7; test: In vitro cytotoxicity, SRB assay, breast cancer cell line MCF7; type: cell-based, human; settings: Homo sapiens, read-out: % of growth inhibition; for inhibition at 10 µM: 48 h exposure
From the text: as §1, with “cells.” for “cells. A protocol of 48 h continuous drug exposure has been used, and a sulforhodamine B (SRB) protein assay was used to estimate cell viability or growth.”

[5] = system: IGR-OV-1; test: In vitro cytotoxicity, SRB assay, ovarian cancer cell line IGR-OV-1; type: cell-based, human; settings: Homo sapiens, IGROV-1, IGR-OV-1 (ovarian), read-out: % of growth inhibition; for inhibition at 10 µM: 48 h exposure
From the text: as §1, with “cells.” for “cells. A protocol of 48 h continuous drug exposure has been used, and a sulforhodamine B (SRB) protein assay was used to estimate cell viability or growth.”

[6] = system: PC-3; test: In vitro cytotoxicity, SRB assay, prostate cancer cell line PC-3; type: cell-based, human; settings: Homo sapiens, PC-3 (prostate), read-out: % of growth inhibition; for inhibition at 10 µM: 48 h exposure
From the text: as §1, with “cells.” for “cells. A protocol of 48 h continuous drug exposure has been used, and a sulforhodamine B (SRB) protein assay was used to estimate cell viability or growth.”

[7] = system: A-549; test: In vitro cytotoxicity, SRB assay, lung cancer cell line A-549; type: cell-based, human; settings: Homo sapiens, A549, A-549 (lung), read-out: % of growth inhibition; for inhibition at 10 µM: 48 h exposure
From the text: as §1, with “cells.” for “cells. A protocol of 48 h continuous drug exposure has been used, and a sulforhodamine B (SRB) protein assay was used to estimate cell viability or growth.”

[8] = system: Colo-205; test: In vitro cytotoxicity, SRB assay, colon cancer cell line Colo-205; type: cell-based, human; settings: Homo sapiens; Colo-205 (colon), reference drug at 1 μM; read-out: % of growth inhibition
From the text: as §1, with “cells.” for “cells. A protocol of 48 h continuous drug exposure has been used, and a sulforhodamine B (SRB) protein assay was used to estimate cell viability or growth.”

Compound	inhibition at 10 µM [1] [%]	cytotoxic activity in words [1]	inhibition at 10 µM [2] [%]	inhibition at 10 µM [3] [%]	inhibition at 10 µM [4] [%]	inhibition at 10 µM [5] [%]	inhibition at 10 µM [6] [%]	inhibition at 10 µM [7] [%]	inhibition at 1 µM [8] [%]	inhibition at 1 µM ([2]; reference drug at 1 μM) [%]	inhibition at 1 µM ([4]; reference drug at 1 μM) [%]	inhibition at 1 µM ([5]; reference drug at 1 μM) [%]	inhibition at 1 µM ([6]; reference drug at 1 μM) [%]	inhibition at 1 µM ([7]; reference drug at 1 μM) [%]
COc1ccc(/C=C\c2cc(OC)c(OC)c(OC)c2)cc1OCCCCN1CCN(CCCCOc2ccc(-c3nc4ccccc4s3)cc2)CC1 [Compound 15h, 2-[4-({4-[4-(4-{2-methoxy-5-[(Z)-2-(3,4,5-trimethoxyphenyl)-1-ethenyl]phenoxy}butyl)piperazino]butyl}oxy)phenyl]-1,3-benzothiazole]	1 to 100	increase in activity	98	72	93	83	96	91						
COc1ccc(/C=C\c2cc(OC)c(OC)c(OC)c2)cc1OCCCCN1CCN(CCCCOc2cc(-c3nc4ccccc4s3)ccc2OC)CC1 [Compound 15m, 2-[4-methoxy-3-({4-[4-(4-{2-methoxy-5-[(Z)-2-(3,4,5-trimethoxyphenyl)-1-ethenyl]phenoxy}butyl)piperazino]butyl}oxy)phenyl]-1,3-benzothiazole]	1 to 100	increase in activity	98	99	97	99	60	100						
COc1ccc(/C=C\c2cc(OC)c(OC)c(OC)c2)cc1OCCCCN1CCN(CCCCOc2cccc(-c3nc4ccccc4s3)c2)CC1 [Compound 15r, 2-[3-({4-[4-(4{-2-methoxy-5-[(Z)-2-(3,4,5-trimethoxyphenyl)-1-ethenyl]phenoxy}butyl)piperazino]butyl}oxy)phenyl]-1,3-benzothiazole]	1 to 100	increase in activity	98	99	88	92	70	96						
COc1cc(-c2nc3ccccc3s2)ccc1OCCCCN1CCN(CCCCOc2cc(/C=C/C(=O)c3cc(OC)c(OC)c(OC)c3)ccc2OC)CC1 [Compound 16c, (E)-3-(3{-[4-(4-{4-[4-(1,3-benzothiazol-2-yl)-2-methoxyphenoxy]butyl}piperazino)butyl]oxy}-4-methoxyphenyl)-1-(3,4,5-trimethoxyphenyl)-2-propen-1-one]	1 to 100		24	0	69	67	24	58						
COc1ccc(/C=C/C(=O)c2cc(OC)c(OC)c(OC)c2)cc1OCCCCN1CCN(CCCCOc2ccc(-c3nc4ccccc4s3)cc2)CC1 [Compound 16h, (E)-3-(3{-[4-(4-{4-[4-(1,3-benzothiazol-2-yl)phenoxy]butyl}piperazino)butyl]oxy}-4-methoxyphenyl)-1-(3,4,5-trimethoxyphenyl)-2-propen-1-one]	1 to 100		63	0	84	73	67	59						
COc1ccc(/C=C/C(=O)c2cc(OC)c(OC)c(OC)c2)cc1OCCCCN1CCN(CCCCOc2cc(-c3nc4ccccc4s3)ccc2OC)CC1 [Compound 16m, (E)-3-(3{-[4-(4-{4-[5-(1,3-benzothiazol-2-yl)-2-methoxyphenoxy]butyl}piperazino)butyl]oxy}-4-methoxyphenyl)-1-(3,4,5-trimethoxyphenyl)-2-propen-1-one]	1 to 100		15	0	57	85	2	100						
CC(=O)O[C@H]1C(=O)[C@@]2(C)[C@H]([C@H](OC(=O)c3ccccc3)[C@]3(O)C[C@H](OC(=O)[C@H](O)[C@@H](NC(=O)c4ccccc4)c4ccccc4)C(C)=C1C3(C)C)[C@]1(OC(C)=O)CO[C@@H]1C[C@@H]2O [Paclitaxel, reference compound]									95	59	59	44	35	62
